{"source": "patent US11000491B2", "about": "“Amino-aryl-benzamide compounds and methods of use thereof” (HEPANOVA, INC., priority 2017, dated 2021)", "key": {"[1]": {"system": "Huh7 cells", "assay": "Lipid droplet (LD) formation in Huh7 cells, BODIPY 493/503 staining, confocal microscopy", "type": "cell-based", "conditions": "Homo sapiens, Huh-7, 24 h", "protocol": "FIGS. 5A-5D. Effect of HPN-01 on hepatocellular lipid droplet (LD) biogenesis. Heptoma cell line Huh7 cells were treated with various amounts of HPN-01 for 24 hours, either in the absence or in the presence of 400 μM oleic acid, which triggers LD formation, after which intracellular LD contents were observed using a Zeiss confocal microscope with fluorescence. FIG. 5A) Fluorescent analysis of untreated (DMSO) or HPN-01-treated cells in the absence (Top panels) and presence (Bottom panels) of oleic acid. Cellular LD contents were stained using BODIPY 493/503 and are shown in green. Blue indicates cell nuclei. FIG. 5B) LD size of treated and untreated (DMSO) cells, in the presence or absence of oleic acid. FIG. 5C) Mean fluorescence intensity of untreated (DMSO) and treated cells in the absence of oleic acid. FIG. 5D) Mean fluorescence intensity of untreated (DMSO) and treated cells in the presence of oleic acid.\nHeptoma cell line Huh7 cells were treated with various amounts of HPN-01 for 24 h, either in the absence or in the presence of 400 μM oleic acid, and observed under a Zeiss confocal microscope. […] LD contents (stained with BODIPY 493/503, in green) were observed under a Zeiss confocal microscope. FIG. 5A. Blue indicates cell nuclei. FIG. 5B. LD size. FIG. 5C. Mean fluorescence intensity. Values were measured using ZEN software by counting 300 cells under each treatment condition."}, "[2]": {"assay": "Cytotoxicity, inhibition of cell growth", "type": "cell-based", "conditions": "human, read-out: CC50 (cytotoxic concentration that will kill half of the treated cells)", "protocol": "FIGS. 10A and 10B. Inhibition of hepatocyte growth by HPN-01.\nHuh7 cells and primary human hepatocytes were cultured in the presence of varying concentrations of HPN-01, and the inhibition of cell growth was measured."}, "[3]": {"system": "SREBP-1", "assay": "SREBP-1 expression in cultured primary human hepatocytes", "type": "cell-based", "conditions": "Hepatocyte", "in_short": "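Primary human hepatocytes in culture exposed to a range of HPN-01 derivative concentrations; SREBP-1 and SREBP-2 mRNA expression then measured to assess inhibition.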"}, "[4]": {"system": "Huh7 cells", "assay": "LD content in Huh7 cells pre-treated with insulin, Oil-Red-O staining, absorbance OD 540 nm", "type": "cell-based", "conditions": "Homo sapiens, Huh-7; Huh7 cells pre-treated with 1 mM insulin, 24 h; read-out: LD contents IC50 (Oil-Red-O, OD 540 nm)", "in_short": "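Huh7 cells, mock-treated or pre-treated with 1 mM insulin, were then exposed to compound at the indicated amounts. Lipid droplets stained with Oil Red O and quantified by absorbance at OD 540 nm.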"}, "[5]": {"system": "high fat diet-induced NAFLD/NASH mice", "assay": "High fat diet-induced NAFLD/NASH mice", "type": "in vivo, C57BL/6 mice", "protocol": "FIG. 11. Study design of in vivo HPN-01 effects on high fat diet-induced NAFLD/NASH mice.\nEight-week old C57BL/6 mice were divided into a test group and a control group. The control group mice were fed with normal chow diet (NCD) for 24 weeks. The test group was further divided into a preventing group and a treatment group. In the preventing group, mice were fed with high-fat diet (HFD) and simultaneously treated with 25 mg/kg of HPN-01 or vehicle daily for 16 weeks, after which time the mice were euthanized and evaluated for NAFLD/NASH development. In the treatment group, mice were fed with HFD for 12 weeks to stimulate the development of NAFLD/NASH, and then treated with 25 mg/kg of HPN-01 or vehicle daily for additional 12 weeks. The mice were then euthanized and evaluated for the presence of NAFLD/NASH. This study design is illustrated in FIG. 11.\nTo determine the effect of HPN-01 on various fat-related molecules in the liver of mice from the study in Example 8, liver tissues were isolated and prepared and the levels of hepatic triglyceride and glycogen were measured.\nThe livers of mice from the study of Example 8 were also analysed for their levels of cholesterol, SREBP-1, and fatty acid synthesis. […] Likewise, SREBP-1 expression in HFD-fed mice with HPN-01 treatment was 0.52±0.06, a reduction of about 48% when compared with HFD-fed mice receiving only vehicle (FIG. 15B).\nPlasma cholesterol and triglyceride levels were determined in blood taken from mice in the study described in Example 8.\nLiver tissues from mice in the study of Example 8 were analysed for the expression level of inflammatory cytokines.\nLiver tissues from mice in the study of Example 8 were analysed for the expression levels of hepatic molecules involved in the formation of fibrotic scarring.\nLiver tissues were then analysed to determine the levels of various pro-fibrotic cytokines. […] The expression level of TIMP2, a fibrosis suppressor, was increased in the presence of HPN-01."}, "[6]": {"conditions": "HFD-fed mice with HPN-01 treatment"}, "[7]": {"conditions": "HFD-fed mice, 25 mg/kg daily, 25 mg/kg"}, "[8]": {"conditions": "HFD-fed mice, preventing group (25 mg/kg daily, 16 weeks)"}, "[9]": {"conditions": "HFD-fed mice, treatment group (HFD 12 weeks, then 25 mg/kg daily 12 weeks)"}}, "note": "Entries after “also recorded” stand apart in the source; their conditions may differ. Where two headings read alike, the source gives them in different places."}
{"smiles": "NC(=O)c1cc(-c2ccc(Cl)cc2)cc(-c2ccc(S(N)(=O)=O)cc2)c1N", "note": "[HPN-01, 2-amino-3-(p-sulfonamidophenyl)-5-(p-chlorophenyl) benzamide]", "values": [{"measurement": "IC50", "setting": "[1]; with oleic acid stimulation (400 μM)", "result": 270, "unit": "nM"}, {"measurement": "IC50", "setting": "[1]; without oleic acid pre-treatment", "result": 460, "unit": "nM"}, {"measurement": "CC50", "setting": "[2]; Huh7 cells", "result": 54300, "unit": "nM"}, {"measurement": "CC50", "setting": "[2]; primary human hepatocytes", "result": 77200, "unit": "nM"}, {"measurement": "IC50", "setting": "[3]", "result": 1710, "unit": "nM"}, {"measurement": "IC50", "setting": "[4]", "result": 250, "unit": "nM"}, {"measurement": "plasma cholesterol level", "setting": "[5]; HFD-fed mice receiving HPN-01", "result": "43.0 ± 15.5", "unit": "mg/dL"}, {"measurement": "plasma triglyceride level", "setting": "[5]; HFD-fed mice receiving HPN-01", "result": "31.2 ± 4.5", "unit": "mg/dL"}, {"measurement": "hepatic SREBP-1 expression (relative)", "setting": "[5]; [6]", "result": "0.52±0.06"}, {"measurement": "hepatic cholesterol level", "setting": "[5]; [6]", "result": "3.9±1.1", "unit": "mg per g tissue"}, {"measurement": "hepatic fatty acid synthesis", "setting": "[5]; [6]", "result": "13.2±2.8", "unit": "DPMs/mg"}, {"measurement": "size and color of liver", "setting": "[5]; HFD-fed mice, 25 mg/kg daily", "result": "very similar to the control mice"}, {"measurement": "LD deposition and inflammatory infiltration in liver sections (H&E, Oil-red-O)", "setting": "[5]; HFD-fed mice, 25 mg/kg daily, preventing and treatment groups", "result": "substantially diminished"}, {"measurement": "body weight increase / HFD-triggered obesity", "setting": "[5]; [7]", "result": "significantly remitted; also recorded: reversed HFD-triggered obesity"}, {"measurement": "fat deposition / visceral fat accumulation", "setting": "[5]; [7]", "result": "significantly remitted; also recorded: significantly alleviated visceral fat accumulation"}, {"measurement": "liver glycogen level", "setting": "[5]; [8]", "result": "8.4 ± 1.6", "unit": "µg/mg"}, {"measurement": "liver triglyceride level", "setting": "[5]; [8]", "result": "67.2 ± 28.3", "unit": "mg/g"}, {"measurement": "liver glycogen level", "setting": "[5]; [9]", "result": "13.3 ± 3.5", "unit": "µg/mg"}, {"measurement": "liver triglyceride level", "setting": "[5]; [9]", "result": "75.5 ± 19.8", "unit": "mg/g"}, {"measurement": "decrease of hepatic cholesterol vs vehicle", "setting": "[5]; HFD-fed mice, vs vehicle only", "result": "about 1.92 fold"}, {"measurement": "decrease of hepatic fatty acid synthesis vs vehicle", "setting": "[5]; HFD-fed mice, vs vehicle only", "result": "about 3.18 fold"}, {"measurement": "decrease of plasma cholesterol vs vehicle", "setting": "[5]; HFD-fed mice, vs vehicle only", "result": 2.75, "unit": "fold"}, {"measurement": "decrease of plasma triglyceride vs vehicle", "setting": "[5]; HFD-fed mice, vs vehicle only", "result": 1.87, "unit": "fold"}, {"measurement": "reduction of hepatic SREBP-1 expression vs vehicle", "setting": "[5]; HFD-fed mice, vs vehicle only", "result": "about 48%"}, {"measurement": "HFD induction of ITGA2, LOX, TIMP1, IGFBP1, IGFBP2, IGFBP3, IGFBP5, IGFBP6 and FGF-21 in liver", "setting": "[5]; liver tissue mRNA, HFD-fed mice", "result": "significantly suppressed"}, {"measurement": "HFD induction of hepatic expression of ICAM1(CD54), IL-1B, IL-8, MCP-1, THF-α and LIF", "setting": "[5]; liver tissue, HFD-fed mice", "result": "substantially abrogated; also recorded: suppressed"}, {"measurement": "expression level of TIMP2 (fibrosis suppressor) in liver", "setting": "[5]; liver tissue, HFD-fed mice", "result": "increased"}]}
